Where two headings read alike, the source gives them in different places.

For data set [1], the target named is σ receptors labelled by [^3H]DTG (σ1 + σ2). In words: Sigma receptor binding assay, [3H]DTG. The following applies: read-out: IC50 ± SEM [^3H]DTG (σ1 + σ2); guinea pig brain membranes; compounds 1-5 tested up to 10 µM. The procedure: Filters were washed three times with 5 ml of ice-cold 10 mM Tris-HCI buffer (pH 8). The bound radioactivity was measured by liquid scintillation counting (Beckman Coulter™ LS6500). […] The values are expressed as the mean ± S.E.M of 2 - 4 independent experiments, each performed in duplicate.

For data set [2], the system named is frontal cortex synaptosomes. In words: ACh release from synaptosomes (15 mM K+-evoked [3H]-ACh release, superfusion). The class given is cell-based, male Sprague Dawley rats. The procedure: Preparation of synaptosomes: synaptosomes were prepared from brain frontal cortex of male Sprague Dawley rats (4 months old). The frontal cortex was rapidly dissected on ice and homogenized in 40 volumes of 0.32 M sucrose buffered at pH 7.4 with 0.01 M sodium phosphate. The homogenate was centrifuged at 1,000 g for 5 min. The crude synaptosomal pellet was obtained by centrifugation of the supernatant at 15,000 g for 20 min and was resuspended in 5 ml basal medium (125 mM Nacl, 3 mM KCI, 1.2 mM MgS04, 1.2 mM CaCl2, 1.0 mM NaH2PO4, 22 mM NaHCO3 and 10 mM glucose) which had been gassed with 95% O2 - 5% CO2 at 37 °C, pH 7.2 - 7.4.
Superfusion protocol: The synaptosomal suspension was incubated with [^3H]-choline (0.03 µM, 17.5x10^6 Bq/g) for 15 min at 37 °C. Then, the suspension was diluted (1:8) and aliquots were applied on filters in a continuous superfusion system with parallel chambers maintained at 37 °C. The media used for superfusion were basal medium and 15 mM K^+-containing stimulation medium. Both media were supplemented with ACh (1 µM) to facilitate the effectiveness of an allosteric potentiating ligand at the nicotine receptor and with atropine (0.1 µM) to block M2 presynaptic receptors. Synaptosomes were superfused with basal medium for 30 min to reach a constant outflow of [^3H]-ACh. Under these experimental conditions, the radioactivity released consisted largely of newly synthesized [^3H]-ACh. The K^+-stimulated release of [^3H]-ACh was determined in 2 subsequently collected fractions: 6 min basal release (superfusion with basal medium) and 6 min K^+-evoked release (superfusion for 1.5 min with 15 mM K^+-containing medium followed by […] basal medium). The test compounds galantamine, 4 and 2 were present in the superfusion medium concomitantly with 15 mM K^+ (for 1.5 min). Basal release of [^3H]-ACh (continuous superfusion with basal medium) was determined by collection of a 6 min sample followed by four subsequent 2 min samples. Aliquots of samples were mixed with scintillation liquid and the radioactivity quantified with a scintillation counter. The radioactivity bound to the filters was also measured.
Statistical analysis: The amount of [^3H]-ACh released in each sample was calculated as fraction of total synaptosomal tritium at the start of the respective collection period (tritium in the sample / sum of tritium in the respective fractions and in the synaptosomes on the filter). K^+-evoked release was expressed as percentage of basal release rate. Each n=1 represents the mean of an experiment with one synaptosomal preparation in at least 3 superfusion chambers. Statistical significance of group variances was calculated by one way ANOVA followed by Bonferroni's test.

Data set [3] relates to extracellular ACh concentration in the nucleus accumbens. As to conditions: for 0AUC120 min (% increase x min) Mean ± SEM: 0 to 120 min; for Increase in ACh release (Peak increase as % of basal output): nucleus accumbens.
Another data set concerns the target µ opioid receptor (Rattus norvegicus, UniProt P33535). In words: Opioid receptor binding assay, [3H]DAMGO, rat brain membranes. The arrangement: Membrane fractions were prepared from Sprague-Dawley rat or guinea pig brains; from tissue; host or cells: Sprague-Dawley rat brain (without cerebella) membranes; species or system Sprague-Dawley rat.

Sequence of µ opioid receptor (P33535 whole entry): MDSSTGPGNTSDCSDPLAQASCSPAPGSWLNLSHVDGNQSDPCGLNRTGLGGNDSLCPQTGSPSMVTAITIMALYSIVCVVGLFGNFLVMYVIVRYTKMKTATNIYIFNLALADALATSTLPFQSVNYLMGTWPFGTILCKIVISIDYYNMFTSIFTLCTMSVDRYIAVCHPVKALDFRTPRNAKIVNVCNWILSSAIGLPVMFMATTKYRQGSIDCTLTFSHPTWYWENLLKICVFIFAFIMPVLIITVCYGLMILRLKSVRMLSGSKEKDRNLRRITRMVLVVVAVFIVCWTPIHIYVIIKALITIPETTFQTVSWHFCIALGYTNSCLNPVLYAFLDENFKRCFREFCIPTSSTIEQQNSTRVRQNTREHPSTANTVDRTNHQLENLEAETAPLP

Regarding `O=CN1CC[C@]23CC(=O)CC[C@H]2[C@H]1Cc1c(O)ccc(O)c13` [Compound 1, 1,4-dihydroxy-N-formylmorphinan-6-one], the IC50 in data set [1] was greater than 10 µM. Besides, in data set [2] (15 mM K+), the “concentration of maximal effect on stimulation-evoked ACh release” value came to 50 µM. The “influence of the nAChR antagonist mecamylamine on the compound-induced release” value in data set [2] (at the maximally effective concentration (1: 50 µM)) is reported as “did not influence”. For the same compound, the “effect on stimulation-evoked ACh release” value in data set [2] (lower (0.1 and 1 µM) and higher concentrations (100 µM)) was “ineffective”. For the same compound, in data set [3] (Dose 0.5 µmol i.c.v.), the “0AUC120 min (% increase x min) Mean ± SEM” value is on record as 210 ± 31 % increase x min and the “Increase in ACh release (Peak increase as % of basal output)” value was 65 ± 16 %. Moreover, in data set [3] (Dose 1 µmol i.c.v.), the “0AUC120 min (% increase x min) Mean ± SEM” value worked out at 1017 ± 214 % increase x min and the “Increase in ACh release (Peak increase as % of basal output)” value was determined as 224 ± 39 %. Besides, in data set [3] (dose of 1 µmol i.c.v.), the “AUC (area under the curve) of ACh (% of the basal value)” value amounted to 1117±214% and the “level of ACh, peak value (% of the basal value)” value came to 324±39%. Besides, in data set [3] (i.c.v., across tested doses), the “dose dependence of the increase in extracellular brain ACh” value is recorded as “dose-dependent increase”. In addition, at µ opioid receptor, the Ki was greater than 10 µM and the “binding to opioid receptor µ (in words)” value is on record as “does not bind”. In addition, the Ki at µ opioid receptor (read-out: Opioid binding affinities Ki µ receptor, [3H]DAMGO, rat brain membranes) is greater than 10 µM.
As to `C=CCN1CC[C@]23CC(=O)CC[C@H]2[C@H]1Cc1cccc(OC)c13` [Compound 4, 4-methoxy-N-allylmorphinan-6-one], the IC50 in data set [1] is greater than 10 µM. In addition, in data set [2] (0.01 to 10 µM), the “effect on K+-evoked ACh release in frontal-cortex synaptosomes” value was “did not influence ACh release”. The “effect on ACh in the superfusate (in words)” value is “ineffective” in data set [3] (0.25 µmol i.c.v., n=4, not shown) and “short, delayed increase” in data set [3] (0.5 µmol i.c.v.). The “toxicity at higher doses” value in data set [3] (1 µmol and above, i.c.v., anaesthetized rats) is listed as “could not be tested because of toxicity”. The entries for the “0AUC120 min (% increase x min) Mean ± SEM” value in data set [3] (Dose 0.25 µmol i.c.v.) and in data set [3] (Dose 0.5 µmol i.c.v.) were “inactive” and 85 ± 26 % increase x min, respectively. Moreover, the “Increase in ACh release (Peak increase as % of basal output)” value in data set [3] (Dose 0.25 µmol i.c.v.) is “inactive”; in data set [3] (Dose 0.5 µmol i.c.v.), 43 ± 19 %. On µ opioid receptor, the affinity, expressed as Ki, was 0.0202 µM. On µ opioid receptor, the “binding to opioid receptor µ (in words)” value is on record as “some µ opioid receptor affinity”. Further, the “selectivity among opioid receptor types” value at µ opioid receptor (from binding, Table 3) is listed as “moderate selectivity for the µ type”.

As a reminder, the IC50 is the midpoint of a concentration-inhibition curve. Usually Ki stands for the dissociation constant of the complex between target and ligand, obtained from inhibition or displacement.

The record behind these values is patent EP2340832A1, “Morphinan-6-one compounds for the treatment or prevention of neurodegenerative diseases” (Universität Innsbruck, priority 2009, dated 2011).
